In PubChem BioAssay (NCI):
Values joined by “and” are separate entries in the source; they are usually repeats but may differ in a detail not shown here. Identical values can stand only once.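 1) Cells in 96-well plates. 2) Compound, 48 h, 5 concentrations. 3) Linear interpolation between surrounding doses. 4) Unreached endpoint = highest concentration. The concentration for 50% growth inhibition is given as GI50. At the TGI there is no net growth.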

Assays:
Test in all cases: growth of human tumour cells (NCI), 48 h
IGROV1 ovarian = system: IGROV1 ovarian
HCT-15 colon = system: HCT-15 colon
SF-295 CNS = system: SF-295 CNS
T-47D breast = system: T-47D breast
RXF 393 renal = system: RXF 393 renal
OVCAR-5 ovarian = system: OVCAR-5 ovarian
HOP-62 NSCLC = system: HOP-62 NSCLC
EKVX NSCLC = system: EKVX NSCLC
UACC-257 melanoma = system: UACC-257 melanoma
SR leukemia = system: SR leukemia

Structure (SMILES)	TGI (IGROV1 ovarian) [µM]	TGI (HCT-15 colon) [µM]	TGI (SF-295 CNS) [µM]	TGI (T-47D breast) [µM]	TGI (RXF 393 renal) [µM]	TGI (OVCAR-5 ovarian) [µM]	TGI (HOP-62 NSCLC) [µM]	TGI (EKVX NSCLC) [µM]	TGI (UACC-257 melanoma) [µM]	TGI (SR leukemia) [µM]	GI50 (EKVX NSCLC)
NC(N)=NCCC[C@H](N)C(=O)NCC(=O)N[C@@H](CC(=O)O)c1ncc(NC(=O)C(F)(F)F)o1	> 25	> 25	> 25	> 25	> 25	> 25	> 25	> 25	> 25	–	–
N#CC(NC12CC3CC(CC(C3)C1)C2)c1ccccc1C(F)(F)F (stereo unspecified)	–	> 100	–	–	> 100	> 100	> 100	> 100	–	> 100	–
Oc1c(CN2CCOCC2)ccc2cccnc12	> 10	> 10	> 10	> 10	> 10	> 10	> 10	> 10	> 10	–	–
O=P(Nc1ccc(Cl)cc1)(Oc1ccccc1)N(CCCl)CCCl (stereo unspecified)	> 100	> 100	> 100	–	–	> 100	> 100	> 100	> 100	> 100	–
COc1ccc(C(=C(Cl)c2ccccc2)c2ccc(OC)cc2)cc1	> 100	> 100	> 100	> 100	> 100	> 100	> 100	> 100	> 100	–	–
Cc1c(S(=O)(=O)/N=C(\NO)Nc2ccc(Cl)c(Cl)c2)sc2ccc(Cl)cc12	34.5	35.7	33.6	36.7	34	38.2	42.3	27.4	37.6	–	–
O=C1CCC(c2ccc(Cl)cc2)=NN1c1nsc2ccccc12	> 100	–	–	–	59.6	> 100	> 100	88.5	68.8	54.8	–
OCC(O)COCn1nncc1Cn1ncc2c(SCc3ccccc3)ncnc21 (stereo unspecified)	> 100	> 100	> 100	> 100	–	> 100	> 100	> 100	> 100	–	–
CC(=O)OC(/C=C/c1ccccc1)=C(OC(C)C)/C1=C(\c2ccccc2)SCCCSC1=O	–	> 100	> 100	–	> 100	> 100	> 100	> 100	> 100	–	–
CC1OC(OC2C(O[C@H]3CC[C@@]4(C)C(=CC[C@H]5[C@@H]6C[C@@H]7O[C@]8(CC[C@@H](CO)CO8)[C@@H](C)[C@@H]7[C@@]6(C)CC[C@@H]54)C3)OC(CO)C(O)C2OC2OC(CO)C(O)C(O)C2O)C(O)C(O)C1O (stereo partly specified)	4.05	3.94	–	4.02	3.01	4.08	3.21	3.96	3.24	–	–
CC1NC(=O)CC(c2ccccc2)N(N=O)C1c1ccccc1 (stereo unspecified)	> 100	> 100	> 100	–	53.5	> 100	> 92.7	> 100	> 100	–	–
O=C1C=C(C2=CC(=O)C(=O)c3ccccc32)c2ccccc2C1=O	> 100	> 100	66.5	56.1	> 100	44.2	64.6	> 100	> 100	–	–
COc1cc(Cn2c3c(c4cc(O)ccc42)Cc2ccccc2C3=O)cc(OC)c1	> 100	> 100	93.9	–	> 100	56.2	> 100	–	> 100	53.3	–
COC1C=CC(O)C(CO)O1 (stereo unspecified)	> 100	> 100	> 100	–	> 100	> 100	> 100	> 100	> 100	> 100	–
Cc1ccc(-c2c(C#N)c(-c3ccc(Cl)cc3)c(C#N)c(=O)n2NS(=O)(=O)c2ccc(C)cc2)cc1	> 100	> 100	> 100	–	65.7	> 100	> 100	> 100	> 100	–	–
NC(N)=N/N=C/c1c[nH]c2ccccc12	> 100	> 100	> 100	–	> 100	> 100	> 100	> 100	> 100	> 100	–
COc1cc(/C=C(\C#N)C(N)=O)cc(Br)c1O	> 100	> 100	> 100	–	> 100	> 100	> 100	> 100	> 100	–	45.8 µM and > 100 µM
CC12C(=O)CC(CC1=O)C2(C)C	> 100	> 100	> 100	> 100	–	> 100	> 100	> 100	> 100	–	–
CCOc1cn(C2CC(O)C(CO)O2)c(=O)[nH]c1=O (stereo unspecified)	> 100	> 100	–	> 100	> 100	> 100	> 100	> 100	> 100	–	–
